These results are taken from US20100168093A1, “SUBSTITUTED 3-AMINO-4 -HYDROXY PYRROLIDINES COMPOUNDS, THEIR PREPARATION AND USE AS MEDICAMENTS” (priority 2006, published 2010).

Counter-ions that a name gives are not always drawn.

The target of the first experiment is T1, Sigma-1 receptor (Cavia porcellus, UniProt Q60492).
T1 construct: guinea pig brains were homogenized; from tissue; host or cells: guinea pig brain membranes
T1 sequence (Q60492 whole entry): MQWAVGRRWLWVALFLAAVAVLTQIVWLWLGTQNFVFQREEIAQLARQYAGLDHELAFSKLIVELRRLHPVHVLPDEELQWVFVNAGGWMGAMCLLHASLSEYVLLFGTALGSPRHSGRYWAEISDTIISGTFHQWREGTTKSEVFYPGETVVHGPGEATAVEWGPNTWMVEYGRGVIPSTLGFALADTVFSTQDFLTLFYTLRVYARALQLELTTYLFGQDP
Kind of experiment: Sigma-1 receptor binding assay, [3H](+)-pentazocine displacement in brain membranes. The following applies: 2.5 h, compound at 10^−7 M; [3H](+)-pentazocine 0.5 nM; guinea pig brain membranes; non-specific binding defined by 1 μM haloperidol; read-out: Percent Replacement Sigma-1 receptor [10^−7 M]. As to the method:
Some representative compounds of the invention were tested for their activity as sigma (sigma-1) inhibitors. The following protocol was followed:
Brain membrane preparation and binding assays for the σ1-receptor were performed as described (DeHaven-Hudkins et al., 1992, Eur. J. Pharmacol. 227, 371-378.) with some modifications. In brief, guinea pig brains were homogenized in 10 vols. (w/v) of Tris-HCl 50 mM 0.32 M sucrose, pH 7.4, with a Kinematica Polytron PT 3000 at 15000 r.p.m. for 30 s. The homogenate was centrifuged at 1000g for 10 min at 4° C. and the supematants collected and centrifuged again at 48000 g for 15 min at 4° C. The pellet was resuspended in 10 volumes of Tris-HCl buffer (50 mM, pH 7.4), incubated at 37° C. for 30 min, and centrifuged at 48000 g for 20 min at 4° C. Following this, the pellet was resuspended in fresh Tris-HCl buffer (50 mM, pH 7.4) and stored on ice until use.
Each assay tube contained 10 μL of [^3H](+)-pentazocine (final concentration of 0.5 nM), 900 μL of the tissue suspension to a final assay volume of 1 mL and a final tissue concentration of approximately 30 mg tissue net weight/mL. Non-specific binding was defined by addition of a final concentration of 1 μM haloperidol. All tubes were incubated at 37° C. for 150 min before termination of the reaction by rapid filtration over Schleicher & Schuell GF 3362 glass fibre filters [previously soaked in a solution of 0.5% polyethylenimine for at least 1 h]. Filters were then washed with four times with 4 mL of cold Tris-HCl buffer (50 mM, pH 7.4). Following addition of scintillation cocktail, the samples were allowed to equilibrate overnight. The amount of bound radioactivity was determined by liquid scintillation spectrometry using a Wallac Winspectral 1414 liquid scintillation counter. Protein concentrations were determined by the method of Lowry et al. (1951; J. Biol. Chem, 193, 265.).
Regarding `CC(=O)O[C@@H]1CN(Cc2ccccc2)C[C@H]1N1CCN(S(=O)(=O)c2ccccc2-c2ccccc2)CC1` (relative stereo) [Example 27, trans 1-Benzyl-4-(4-(2-phenyl-phenylsulfonyl)piperazin-1-yl)pyrrolidin-3-yl acetate], the inhibition at 0.1 µM turned out to be 24.7%.

As for `O[C@@H]1CN(Cc2ccccc2)C[C@H]1N1CCc2ccccc2C1` [Example 1, (3,4-trans)-1-benzyl-4-(3,4-dihydroisoquinolin-2(1H)-yl)pyrrolidine-3-ol], the inhibition at 0.1 µM came out at 84.9%.

`O[C@@H]1CN(Cc2ccccc2)C[C@H]1N1CCC(CN2CCc3ccccc3C2)CC1` [Example 5, (3,4-trans)-1-benzyl-4-(4-((3,4-dihydrolsoquinolin-2(1H)-yl)methyl)piperidin-1-yl)pyrrolidine-3-ol]: the inhibition at 0.1 µM was found to be 63.5%. For `O[C@@H]1CN(Cc2ccccc2)C[C@H]1NCCCN1CCc2ccccc2C1` [Example 9, (3,4-trans)-1-benzyl-4-(3-(3,4-dihydroisoquinolin-2(1H)-yl)propylamino)pyrrolidine-3-ol], the inhibition at 0.1 µM is 38.6%. Still for that read-out and setting: the figure for `COc1ccnc(N2CCN([C@@H]3CN(Cc4ccccc4)C[C@H]3O)CC2)n1` [Example 10, (3,4-trans)-1-benzyl-4-(4-(4-methoxypyrimidin-2-yl)piperazin-1-yl)pyrrolidine-3-ol] is 77.8%; for `O[C@@H]1CN(Cc2ccccc2)C[C@H]1N1CCc2cccc3c2C1CC3` (stereo partly drawn) [Example 11, (3,4-trans)-1-benzyl-4-(2,3,8,8a-tetrahydrocyclopenta[ij]isoquinolin-1(7H)-yl)pyrrolidine-3-ol] it is 81.1%; for `CC(C)(C)OC(=O)N1CCN([C@@H]2CN(Cc3ccccc3)C[C@H]2O)CC1` [Example 12, tert-butyl-4-((3,4-trans)-1-benzyl-4-hydroxypyrrolidine-3-yl)piperazine-1-carboxylate] it is 96.5%. Turning to `C[C@@H](c1ccccc1)N1C[C@@H](O)[C@H](N2CCc3ccccc3C2)C1` [Example 16, (3,4-trans)-4-(3,4-dihydroisoquinolin-2(1H)-yl)-1((S)-1-phenylethyl)pyrrolidine-3-ol], the inhibition at 0.1 µM amounted to 49.9%. As for `CC(=O)O[C@@H]1CN(Cc2ccccc2)C[C@H]1N1CCN(C(=O)OC(C)(C)C)CC1` [Example 24], the inhibition at 0.1 µM came out at 73%. The same measure, in the same setting: the figure for `O[C@@H]1CN(Cc2ccccc2)C[C@H]1Nc1ccccc1` [Example 29, (3,4-trans)-1-benzyl-4-(phenylamino)pyrrolidin-3-ol] is 39.3%; for `CCCCCCCCN[C@@H]1CN(Cc2ccccc2)C[C@H]1O` [Example 31, (3R,4R)-1-benzyl-4-(octylamino)pyrrolidin-3-ol] it is 89.9%. On the same count and under the same terms, next, `COc1ccc(CN[C@@H]2CN(Cc3ccccc3)C[C@H]2O)cc1` [Example 32, (3,4-trans)-1-benzyl-4-(4-methoxybenzylamino)pyrrolidin-3-ol]: 59.1%. Still for that read-out and setting: next, `COc1ccc(N[C@@H]2CN(Cc3ccccc3)C[C@H]2O)cc1` [Example 37, (3R,4R)-1-benzyl-4-(4-methoxyphenylamino)pyrrolidin-3-ol]: 65.4%.

In the case of `COC(=O)c1ccc(N[C@@H]2CN(Cc3ccccc3)C[C@H]2O)cc1` [Example 38, Methyl 4-((3,4-trans)-1-benzyl-4-hydroxypyrrolidin-3-ylamino)benzoate], the inhibition at 0.1 µM was determined as 55.9%. Still for that read-out and setting: the figure for `CC(=O)O[C@@H]1CN(Cc2ccccc2)C[C@H]1N1CCN(S(=O)(=O)c2ccccc2Cl)CC1` [Example 52, (3R,4R)-1-benzyl-4(4-(2-chlorophenylsulfonyl)piperazin-1-yl)pyrrolidin-3-yl acetate] is 92.4%; for `CC(=O)O[C@@H]1CN(Cc2ccccc2)C[C@H]1N1CCN(S(=O)(=O)c2ccc(C)cc2)CC1` [Example 56, (3,4-trans)-1-benzyl-4-(4-tosylpiperazin-1-yl)pyrrolidin-3-yl acetate dihydrochloride] it is 38%. `Cc1ccc(S(=O)(=O)N2CCN([C@@H]3CN(Cc4ccccc4)C[C@H]3O)CC2)cc1` [Example 57, (3,4-trans)-1-benzyl-4-(4-tosylpiperazin-1-yl)pyrrolidin-3-ol dihydrochloride]: the inhibition at 0.1 µM is 16.8%. As to `CC(=O)O[C@@H]1CN(Cc2ccccc2)C[C@H]1N1CCN(S(=O)(=O)c2cccc3ccccc23)CC1` [Example 60, (3,4-trans)-1-benzyl-4-(4-(naphthalen-1-ylsulfonyl)piperazin-1-yl)pyrrolidin-3-yl acetate dihydrochloride], the inhibition at 0.1 µM came to 40.8%. Same read-out and setting: the figure for `O=S(=O)(c1cccc2ccccc12)N1CCN([C@@H]2CN(Cc3ccccc3)C[C@H]2O)CC1` [Example 61, (3,4-trans)-1-benzyl-4-(4-(naphthalen-1-ylsulfonyl)piperazin-1-yl)pyrrolidin-3-ol dihydrochloride] is 30.1%; for `O=S(=O)(c1ccccc1Br)N1CCN([C@@H]2CN(Cc3ccccc3)C[C@H]2O)CC1` [Example 67, (3,4-trans)-1-benzyl-4-(4-(2-bromophenylsulfonyl)piperazin-1-yl)pyrrolidin-3-ol dihydrochloride] it is 86.7%; for `Cc1ccc(F)cc1S(=O)(=O)N1CCN([C@@H]2CN(Cc3ccccc3)C[C@H]2O)CC1` [Example 70, (3,4-trans)-1-benzyl-4-(4-(5-fluoro-2-methylphenylsulfonyl)piperazin-1-yl)pyrrolidin-3-ol dihydrochioride] it is 81.4%. With `O=S(=O)(c1ccccc1)N1CCN([C@@H]2CN(Cc3ccccc3)C[C@H]2O)CC1` [Example 73, (3,4-trans)-1-benzyl-4-(4-(phenylsulfonyl)piperazin-1-yl)pyrrolidin-3-ol], the inhibition at 0.1 µM amounted to 84%. The same measure, in the same setting: the figure for `CC(=O)O[C@@H]1CN(Cc2ccccc2)C[C@H]1N1CCN(S(=O)(=O)c2ccccc2F)CC1` [Example 75, (3,4-trans)-1-benzyl-4-(4-(2-fluorophenylsulfonyl)piperazin-1-yl)pyrrolidin-3-yl acetate dihydrochloride] is 95.5%; for `O=S(=O)(c1ccccc1F)N1CCN([C@@H]2CN(Cc3ccccc3)C[C@H]2O)CC1` [Example 76, (3,4-trans)-1-benzyl-4-(4-(2-fluorophenylsulfonyl)piperazin-1-yl)pyrrolidin-3-ol dihydrochloride] it is 85%. Same read-out and setting: the figure for `O=S(=O)(c1ccccc1F)N1CCN([C@H]2CN(Cc3ccccc3)C[C@@H]2O)CC1` [Example 77, (3S,4S)-1-benzyl-4-(4-(2-fluorophenylsulfonyl)piperazin-1-yl)pyrrolidin-3-ol dihydrochloride] is 46.1%; for `O[C@@H]1CN(Cc2ccccc2)C[C@H]1N1CCN(Cc2c(F)cccc2Cl)CC1` [Example 78, (3,4-trans)-1-benzyl-4-(4-(2-chloro-6-fluorobenzyl)piperazin-1-yl)pyrrolidine-3-ol] it is 81.9%. Still for that read-out and setting: the figure for `O[C@@H]1CN(Cc2ccccc2)C[C@H]1N1CCN(Cc2ccc(Cl)c(Cl)c2)CC1` [Example 79, (3,4-trans)-1-benzyl-4-(4-(3,4-dichlorobenzyl)piperazin-1-yl)pyrrolidine-3-ol] is 88.4%.

Regarding `O[C@@H]1CN(Cc2ccccc2)C[C@H]1N1CCN(c2ccc(F)cc2)CC1` [Example 83, (3,4-trans)-1-benzyl-4-(4-(4-fluorophenyl)piperazin-1-yl)pyrrolidin-3-ol], the inhibition at 0.1 µM came to 69.7%. Same read-out and setting: next, `O[C@@H]1CN(Cc2ccccc2)C[C@H]1N1CCN(c2ccccc2Cl)CC1` [Example 85]: 107%; `O[C@H]1CN(Cc2ccccc2)C[C@@H]1N1CCN(c2ccccc2Cl)CC1` [Example 86, (3S,4S)-1-benzyl-4-(4-(2-chlorophenyl)piperazin-1-yl)pyrrolidin-3-ol]: 86.2%; `O[C@@H]1CN(Cc2ccccc2)C[C@H]1N1CCN(c2ccc(Cl)c(Cl)c2)CC1` [Example 88, (3,4-trans)-1-benzyl-4-(4-(3,4-dichlorophenyl)piperazin-1-yl)pyrrolidin-3-ol]: 93.1%.

The same experiment, now with this note: compound at 10^−7 M; [3H](+)-pentazocine 0.5 nM; guinea pig brain membranes; non-specific binding defined by 1 μM haloperidol.
In the case of `O=S(=O)(c1ccccc1F)N1CCN([C@@H]2CN(Cc3ccccc3)C[C@H]2O)CC1` [Example 48, (3R,4R)-1-benzyl-4-(4-(2-fluorophenylsulfonyl)piperazin-1-yl)pyrrolidin-3-ol], the “Percent Replacement Sigma-1 receptor [10^−7 M]” value worked out at 96.5%. On the same count and under the same terms, the figure for `O[C@@H]1CN(Cc2ccccc2)C[C@H]1N1CCN(c2ccccc2Cl)CC1` [Example 84, (3,4-trans)-1-benzyl-4-(4-(2-chlorophenyl)piperazin-1-yl)pyrrolidin-3-ol] is 94.6%.
